Laboratory results published in US7166296B2, “Pharmaceutical formulations and ligands for use therein; mimetics for UEA-1” (Sarlan, Ltd., priority 2001, dated 2007).
Values after ≈ are worked out from the molar mass of the structure shown. Blank lines part the entries; values can stand above or below the compound they belong to.

What was measured:
[1] = test system: UEA-1 binding sites on Caco-2 cell membrane preparations; assay: Single tier competition assay: inhibition of biotinylated UEA-1 binding, compound and biotinylated UEA-1 incubated together; parameters: species or system human; settings: for Av % Inhibition / Avg % Inhibtion: Single Tier Assay; for Av % Inhibition: library MSI 22; for Avg % Inhibtion: library MSI 26
Description: (§1) The epithelial cell binding ability of compounds and mixtures obtained from synthetic combinatorial libraries was determined by competition assays. These assays were set up to measure the inhibition of binding of biotinylated UEA-1 to membrane preparations of the epithelial cell line Caco-2 (colon carcinoma cells-2), by compounds and mixtures of the combinatorial libraries. This cell line is a conventional model for epithelial cells.
(§2) Two competition inhibition assays were used in this case, namely single tier and two tier assays. These assays differed from each other in that in the single tier assay, the mixtures/compounds and the biotinylated UEA-1 were incubated together with the Caco-2 cell membrane preparations, while in case of the two-tier assay, the mixture/compounds were allowed to incubate alone with the cell membranes in the absence of biotinylated UEA-1, which was added in the next step. Addition of the extra step in the two-tier assay was to ensure that the compounds inhibiting the binding of biotinylated UEA-1 to the Caco-2 cell membranes were doing so by themselves binding to surface receptors on the Caco-2 cells and not to the biotinylated UEA-1. Each assay will be described in detail.
(§3) • 1. Confluent Caco-2 cell monolayers (grown in 75 cm^2 flasks for up to 1 week at 37° C. and 5% CO2) were washed twice in Dulbecco's PBS (DPBS). • 2. Cell monolayers were treated with 10 mM EDTA-DPBS for 5–10 min at 37° C. and cells were harvested by centrifugation at 1000 rpm for 5 min. • 3. Cells were washed 3 times in DPBS. • 4. […] The cells were homogenised for 30 sec. • 6. The homogenates were centrifuged in hard walled tubes at 40,000 rpm for 45 min at 4° C. • 7. […] The supernatant was removed and stored on ice. The procedure was repeated adding the second supernatant to the first. • 8. The protein concentration was determined using e.g. a Bio-Rad protein assay. • 9. All fractions were stored at −80° C. prior to use. Single Tier Assays: • 1. 96-well microtiter plates were coated with membrane preparations of Caco-2 cells either by allowing them to incubate on the plates for 2½ hours at room temperature or by incubating them overnight at 4° C. 100 μl of 10 μg/ml (in 0.05 M carbonate buffer, pH 9.6) of membrane preparation was added to each well. • 2. The plates were flicked out, patted dry and blocked with bovine serum albumin (BSA)/DPBS (200 μl/well) for 1 to 4 hours at room temperature after which they were washed three times in water. • 3. […] Control wells were also set up in which the Caco-2 cell membrane preparations were incubated with unconjugated UEA-1. […] Following overnight incubation the plates were washed thoroughly (3–6 times). The plates were flicked out, patted dry and biotinylated UEA-1 was detected with commercial Streptavidin conjugated to horseradish peroxidase (HRP) (CalBiochem). […] The plates were left to incubate for an hour at room temperature. • 6. The plates were then washed 3–6 times and the biotin-streptavidin binding was detected by adding an HRP substrate OPD (orthophenyl diamine) to each well. 100 μl/well of this substrate at a final concentration of 1.6 mg/ml was added to each well. Before adding to the wells, this substrate was activated by addition of 50 μl of 3% H2O2 per plate and the reaction was allowed to develop in the dark. • 7. The reaction was stopped by adding 50 μl of 4 N H2SO4 to each well after approximately 5–10 minutes or when sufficient colour had developed. The OD490 (absorbance at 490 nm) of each well was measured using a conventional 96 well plate reading spectrophotometer. Two Tier Assays: • 1. 96 well plates were coated with Caco-2 cell membrane preparations in the same manner as described in the single tier assay. • 2. […] 100 μl at these final concentrations were added to each well. • 4. The plates were then left to incubate overnight, a step that would allow the mixtures and compounds to interact with the Caco-2 cell membranes without the presence of the competitor (biotinylated UEA-1) itself. • 5. […]

[2] = test system: UEA-1 binding sites on Caco-2 cell membrane preparations; assay: Two tier competition assay: compound incubated alone with membranes, biotinylated UEA-1 added in next step; parameters: species or system human; settings: for Av % Inhibition / Avg % Inhibition: Two Tier Assay; for Av % Inhibition: library MSI 22; for Avg % Inhibition: library MSI 26
Description: as §1, §2, §3

[3] = library MSI 27, read-out: Single Tier Assay IC50
[4] = library MSI 27, read-out: Two Tier Assay IC50
[5] = Table 8, galloyl constructs, read-out: IC 50 (uM) 1st tier (converted)
[6] = Table 8, galloyl constructs, read-out: IC 50 (uM) 2nd tier

SMILES: CNC[C@@H](Cc1ccc(OC(=O)OCc2ccccc2Br)cc1)N(C)C[C@H](CC1CCCCC1)NC(=O)c1cc(OC)c(OC)c(OC)c1
Av % Inhibition ([1]; 62.5 μg/ml): −0% | Av % Inhibition ([1]; 250 μg/ml): −11.7% | Av % Inhibition ([2]; 62.5 μg/ml): 39.7% | Av % Inhibition ([2]; 250 μg/ml): 58.9%

SMILES: CCOc1ccc(C[C@H](CNC)N(C)C[C@H](CC2CCCCC2)NC(=O)c2cc(OC)c(OC)c(OC)c2)cc1
Av % Inhibition ([1]; 62.5 μg/ml): −9% | Av % Inhibition ([1]; 250 μg/ml): −55.7% | Av % Inhibition ([2]; 62.5 μg/ml): 49.8% | Av % Inhibition ([2]; 250 μg/ml): 43.8%

SMILES: NC(=O)c1cc(O)c(O)c(O)c1 [3,4,5-trihydroxybenzamide, reference compound]
Avg % Inhibtion ([1]; 62.5 μg/ml): 41.7% | Avg % Inhibtion ([1]; 250 μg/ml): 21% | Avg % Inhibition ([2]; 62.5 μg/ml): 10.7% | Avg % Inhibition ([2]; 250 μg/ml): 41.4%

SMILES: NC(=O)c1cc(O)cc(O)c1 [3,5-dihydroxybenzamide, reference compound]
Avg % Inhibtion ([1]; 62.5 μg/ml): −1% | Avg % Inhibtion ([1]; 250 μg/ml): 2.4% | Avg % Inhibition ([2]; 62.5 μg/ml): −7% | Avg % Inhibition ([2]; 250 μg/ml): −2%

SMILES: O=C(O)c1cc(O)cc(O)c1 [3,5-dihydroxybenzoic Acid, reference compound]
Avg % Inhibtion ([1]; 62.5 μg/ml): 0% | Avg % Inhibtion ([1]; 250 μg/ml): 1.1% | Avg % Inhibition ([2]; 62.5 μg/ml): −5% | Avg % Inhibition ([2]; 250 μg/ml): −7%

IC50 [1, 3]: 495 µM | IC50 [2, 4]: 495 µM
SMILES: COc1cc(C(=O)NCCCCC(NC(=O)c2cc(OC)c(O)c(OC)c2)C(N)=O)cc(OC)c1O (centres unmarked) [Cpd 1]

SMILES: COc1ccc(C(=O)NCCCCC(NC(=O)c2ccc(OC)c(OC)c2)C(N)=O)cc1OC (centres unmarked) [Cpd 2]
Single Tier Assay IC50 ([1]; library MSI 27): 128.20 µg/mL | IC50 [1, 3]: 271 µM | Two Tier Assay IC50 ([2]; library MSI 27): 96.44 µg/mL | IC50 [2, 4]: 204 µM

IC50 [1, 3]: 405 µM | IC50 [2, 4]: 405 µM
SMILES: CCOc1cc(C(=O)NCCCCC(NC(=O)c2cc(OCC)c(OCC)c(OCC)c2)C(N)=O)cc(OCC)c1OCC (centres unmarked) [Cpd 3]

SMILES: COc1cc(C(=O)NCCCCC(NC(=O)c2cc(OC)c(OC)c(OC)c2)C(N)=O)cc(OC)c1OC (centres unmarked) [Cpd 4]
IC50 [1, 3]: 469 µM | IC50 [2, 4]: 469 µM

SMILES: NC(=O)C(CCCCNC(=O)c1cc(O)c(O)c(O)c1)NC(=O)c1cc(O)c(O)c(O)c1 (centres unmarked) [Cpd 6]
IC 50 (ug/ml) 1st tier ([1]; Table 8, galloyl constructs): 11 µg/mL (≈ 24.5 µM) | IC50 [1, 5]: 24 µM | Single Tier Assay IC50 ([1]; library MSI 27): 18.97 µg/mL | IC50 [1, 3]: 42.2 µM | IC 50 (ug/ml) 2nd tier ([2]; Table 8, galloyl constructs): 8 µg/mL (≈ 17.8 µM) | IC50 [2, 6]: 17 µM | Two Tier Assay IC50 ([2]; library MSI 27): 12.97 µg/mL | IC50 [2, 4]: 28.9 µM

IC50 [1, 3]: 649 µM | IC50 [2, 4]: 649 µM
SMILES: NC(=O)C(CCCCNC(=O)c1ccc(O)cc1)NC(=O)c1ccc(O)cc1 (centres unmarked) [Cpd 7]

Single Tier Assay IC50 ([1]; library MSI 27): 125.00 µg/mL | IC50 [1, 3]: 340 µM | Two Tier Assay IC50 ([2]; library MSI 27): 101.20 µg/mL | IC50 [2, 4]: 275 µM
SMILES: COc1cc(C(=O)NCCCCC(NC(C)=O)C(N)=O)cc(OC)c1O (centres unmarked) [Cpd 9]

IC50 [1, 3]: 590 µM | IC50 [2, 4]: 590 µM
SMILES: CCOc1cc(C(=O)NCCCCC(NC(C)=O)C(N)=O)cc(OCC)c1OCC (centres unmarked) [Cpd 11]

SMILES: COc1cc(C(=O)NCCCCC(NC(C)=O)C(N)=O)cc(OC)c1OC (centres unmarked) [Cpd 12]
IC50 [1, 3]: 655 µM | IC50 [2, 4]: 655 µM

SMILES: CC(=O)NC(CCCCNC(=O)c1cc(O)c(O)c(O)c1)C(N)=O (centres unmarked) [Cpd 14]
IC 50 (ug/ml) 1st tier ([1]; Table 8, galloyl constructs): 72 µg/mL (≈ 212 µM) | IC50 [1, 5]: 54 µM | Single Tier Assay IC50 ([1]; library MSI 27): 129.70 µg/mL | IC50 [1, 3]: 382 µM | IC 50 (ug/ml) 2nd tier ([2]; Table 8, galloyl constructs): 211 µg/mL (≈ 622 µM) | IC50 [2, 6]: 160 µM | Two Tier Assay IC50 ([2]; library MSI 27): 91.52 µg/mL | IC50 [2, 4]: 270 µM
